Where two headings read alike, the source gives them in different places. Non-standard residues stand in square brackets, D forms with d. Residues, ends and D or L forms follow the SMILES beside them.
What was measured:
[1] = system: HIV-1; settings: H9 cells
Method: Compounds (a), (b), (c), (d) were tested in the molarity range from 0.1 μM to 1000 μM. Infectivity tests were carried out as follows: an HIV-1 suspension containing 10^2 infectious units was absorbed on to 5×10^6 H9 cells in a volume of 1 ml for 2 hours at 4° C. After this time, 9 ml of tissue culture medium with the required inhibitor concentration was added. The medium was exchanged with fresh medium plus inhibitor daily. Two control cultures were also prepared, one without inhibitor to determine the normal virus replication rate, the other containing inhibitor but no virus, to determine whether the substances were cytotoxic for H9 cells. […] The amount of virus antigen produced by the infected cells was measured daily using Elisa for eight days, indicating the amount of HIV-1 antigen in the tissue culture medium. After this, the cells were pelleted, washed in medium without inhibitor, and further incubated in inhibitor-less medium. The antigen production was measured on days 9 and 12 (ie 1 and […] after removal of the inhibitor). Virus production was also measured on days 7, 8, 9, and 12 by determining the amount of reverse transcriptase in the supernatant of the cell medium.

[2] = system: HIV-1
Method: Infectivity tests were carried out as follows: an HIV-1 suspension containing 10^2 infectious units was absorbed on to 5×10^6 H9 cells in a volume of 1 ml for 2 hours at 4° C. After this time, 9 ml of tissue culture medium with the required inhibitor concentration was added. The medium was exchanged with fresh medium plus inhibitor daily. Two control cultures were also prepared, one without inhibitor to determine the normal virus replication rate, the other containing inhibitor but no virus, to determine whether the substances were cytotoxic for H9 cells. […] The amount of virus antigen produced by the infected cells was measured daily using Elisa for eight days, indicating the amount of HIV-1 antigen in the tissue culture medium. After this, the cells were pelleted, washed in medium without inhibitor, and further incubated in inhibitor-less medium. The antigen production was measured on days 9 and 12 (ie 1 and 3 days after removal of the inhibitor). Virus production was also measured on days 7, 8, 9, and 12 by determining the amount of reverse transcriptase in the supernatant of the cell medium.

[3] = 0,1 μM, day 9 post infection, no inhibitor (after removal)
[4] = 0,1 μM, day 12 post infection, no inhibitor (after removal)
[5] = 1 μM, day 9 post infection, no inhibitor (after removal)
[6] = 1 μM, day 12 post infection, no inhibitor (after removal)
[7] = 10 μM, day 9 post infection, no inhibitor (after removal)
[8] = 10 μM, day 12 post infection, no inhibitor (after removal)
[9] = 100 μM, day 9 post infection, no inhibitor (after removal)
[10] = 100 μM, day 12 post infection, no inhibitor (after removal)
[11] = 1000 μM, day 9 post infection, no inhibitor (after removal)
[12] = 1000 μM, day 12 post infection, no inhibitor (after removal)

CC(C)C[C@@H](NC(=O)[C@H](N)CC(N)=O)C(=O)N[C@@H](C(=O)NCC(=O)O)[C@H](C)O [A, H-(D)-Asn-(D)-Leu-(D)-Thr-Gly-OH] (H-[dN][dL][dT]G-OH)
HIV-1 antigen production as measured in antigen capture ELISA ([1]; 0,1 μM, day 1 post infection): 0,060 o. D. | HIV-1 antigen production as measured in antigen capture ELISA ([1]; 0,1 μM, day 2 post infection): 0,066 o. D. | HIV-1 antigen production as measured in antigen capture ELISA ([1]; 0,1 μM, day 3 post infection): 0,062 o. D. | HIV-1 antigen production as measured in antigen capture ELISA ([1]; 0,1 μM, day 4 post infection): 0,055 o. D. | HIV-1 antigen production as measured in antigen capture ELISA ([1]; 0,1 μM, day 5 post infection): 0,058 o. D. | HIV-1 antigen production as measured in antigen capture ELISA ([1]; 0,1 μM, day 6 post infection): 0,181 o. D. | HIV-1 antigen production as measured in antigen capture ELISA ([1]; 0,1 μM, day 7 post infection): 0,363 o. D. | HIV-1 antigen production as measured in antigen capture ELISA ([1]; 0,1 μM, day 8 post infection): 0,478 o. D. | HIV-1 antigen production as measured in antigen capture ELISA [1, 3]: 0,737 o. D. | HIV-1 antigen production as measured in antigen capture ELISA [1, 4]: 1,037 o. D. | HIV-1 antigen production as measured in antigen capture ELISA ([1]; 1 μM, day 1 post infection): 0,064 o. D. | HIV-1 antigen production as measured in antigen capture ELISA ([1]; 1 μM, day 2 post infection): 0,060 o. D. | HIV-1 antigen production as measured in antigen capture ELISA ([1]; 1 μM, day 3 post infection): 0,075 o. D. | HIV-1 antigen production as measured in antigen capture ELISA ([1]; 1 μM, day 4 post infection): 0,057 o. D. | HIV-1 antigen production as measured in antigen capture ELISA ([1]; 1 μM, day 5 post infection): 0,053 o. D. | HIV-1 antigen production as measured in antigen capture ELISA ([1]; 1 μM, day 6 post infection): 0,136 o. D. | HIV-1 antigen production as measured in antigen capture ELISA ([1]; 1 μM, day 7 post infection): 0,213 o. D. | HIV-1 antigen production as measured in antigen capture ELISA ([1]; 1 μM, day 8 post infection): 0,394 o. D. | HIV-1 antigen production as measured in antigen capture ELISA [1, 5]: 0,694 o. D. | HIV-1 antigen production as measured in antigen capture ELISA [1, 6]: 1,065 o. D. | HIV-1 antigen production as measured in antigen capture ELISA ([1]; 10 μM, day 1 post infection): 0,061 o. D. | HIV-1 antigen production as measured in antigen capture ELISA ([1]; 10 μM, day 2 post infection): 0,075 o. D. | HIV-1 antigen production as measured in antigen capture ELISA ([1]; 10 μM, day 3 post infection): 0,069 o. D. | HIV-1 antigen production as measured in antigen capture ELISA ([1]; 10 μM, day 4 post infection): 0,044 o. D. | HIV-1 antigen production as measured in antigen capture ELISA ([1]; 10 μM, day 5 post infection): 0,064 o. D. | HIV-1 antigen production as measured in antigen capture ELISA ([1]; 10 μM, day 6 post infection): 0,140 o. D. | HIV-1 antigen production as measured in antigen capture ELISA ([1]; 10 μM, day 7 post infection): 0,256 o. D. | HIV-1 antigen production as measured in antigen capture ELISA ([1]; 10 μM, day 8 post infection): 0,499 o. D. | HIV-1 antigen production as measured in antigen capture ELISA [1, 7]: 0,727 o. D. | HIV-1 antigen production as measured in antigen capture ELISA [1, 8]: 1,003 o. D. | HIV-1 antigen production as measured in antigen capture ELISA ([1]; 100 μM, day 1 post infection): 0,068 o. D. | HIV-1 antigen production as measured in antigen capture ELISA ([1]; 100 μM, day 2 post infection): 0,064 o. D. | HIV-1 antigen production as measured in antigen capture ELISA ([1]; 100 μM, day 3 post infection): 0,065 o. D. | HIV-1 antigen production as measured in antigen capture ELISA ([1]; 100 μM, day 4 post infection): 0,053 o. D. | HIV-1 antigen production as measured in antigen capture ELISA ([1]; 100 μM, day 5 post infection): 0,057 o. D. | HIV-1 antigen production as measured in antigen capture ELISA ([1]; 100 μM, day 6 post infection): 0,070 o. D. | HIV-1 antigen production as measured in antigen capture ELISA ([1]; 100 μM, day 7 post infection): 0,361 o. D. | HIV-1 antigen production as measured in antigen capture ELISA ([1]; 100 μM, day 8 post infection): 0,374 o. D. | HIV-1 antigen production as measured in antigen capture ELISA [1, 9]: 0,915 o. D. | HIV-1 antigen production as measured in antigen capture ELISA [1, 10]: 1,013 o. D. | HIV-1 antigen production as measured in antigen capture ELISA ([1]; 1000 μM, day 1 post infection): 0,087 o. D. | HIV-1 antigen production as measured in antigen capture ELISA ([1]; 1000 μM, day 2 post infection): 0,058 o. D. | HIV-1 antigen production as measured in antigen capture ELISA ([1]; 1000 μM, day 3 post infection): 0,073 o. D. | HIV-1 antigen production as measured in antigen capture ELISA ([1]; 1000 μM, day 4 post infection): 0,054 o. D. | HIV-1 antigen production as measured in antigen capture ELISA ([1]; 1000 μM, day 5 post infection): 0,056 o. D. | HIV-1 antigen production as measured in antigen capture ELISA ([1]; 1000 μM, day 6 post infection): 0,102 o. D. | HIV-1 antigen production as measured in antigen capture ELISA ([1]; 1000 μM, day 7 post infection): 0,286 o. D. | HIV-1 antigen production as measured in antigen capture ELISA ([1]; 1000 μM, day 8 post infection): 0,597 o. D. | HIV-1 antigen production as measured in antigen capture ELISA [1, 11]: 0,899 o. D. | HIV-1 antigen production as measured in antigen capture ELISA [1, 12]: 1,054 o. D. | Reverse Transkriptase Determination ([2]; 0,1 μM, day 7 post infection): 3929 epm/ml | Reverse Transkriptase Determination ([2]; 0,1 μM, day 8 post infection): 6914 epm/ml | Reverse Transkriptase Determination [2, 3]: 14455 epm/ml | Reverse Transkriptase Determination [2, 4]: 137470 epm/ml | Reverse Transkriptase Determination ([2]; 1 μM, day 7 post infection): 4041 epm/ml | Reverse Transkriptase Determination ([2]; 1 μM, day 8 post infection): 7460 epm/ml | Reverse Transkriptase Determination [2, 5]: 9502 epm/ml | Reverse Transkriptase Determination [2, 6]: 163130 epm/ml | Reverse Transkriptase Determination ([2]; 10 μM, day 7 post infection): 4615 epm/ml | Reverse Transkriptase Determination ([2]; 10 μM, day 8 post infection): 5381 epm/ml | Reverse Transkriptase Determination [2, 7]: 12517 epm/ml | Reverse Transkriptase Determination [2, 8]: 117910 epm/ml | Reverse Transkriptase Determination ([2]; 100 μM, day 7 post infection): 5378 epm/ml | Reverse Transkriptase Determination ([2]; 100 μM, day 8 post infection): 6407 epm/ml | Reverse Transkriptase Determination [2, 9]: 12893 epm/ml | Reverse Transkriptase Determination [2, 10]: 142240 epm/ml | Reverse Transkriptase Determination ([2]; 1000 μM, day 7 post infection): 1529 epm/ml | Reverse Transkriptase Determination ([2]; 1000 μM, day 8 post infection): 2121 epm/ml | Reverse Transkriptase Determination [2, 11]: 1550 epm/ml | Reverse Transkriptase Determination [2, 12]: 104660 epm/ml

From patent US5674979A, “Agent for inhibiting symmetrical proteins, in particular enzymes” (priority 1989, dated 1997)
